For one data set, the system named is L.donovani. Also noted: method as in PMID 25936561. The note with it: L.donovani infection; cited from earlier work.
For another data set, the system named is liver parasite burden. Set-up: method as in PMID 14695832, PMID 17715126. The note with it: BALB/c mice; cited from earlier work.
In data set [1] the test system is axenic L.donovani amastigotes, GE1 (isolated strain resistant to SSG). In words: Antileishmanial activity against axenic amastigotes, GE1. The format is cell-based. As to the method: (§1) L. donovani AG83 (MHOM/IN/83/AG83) and GE1 (MHOM/IN/80/GE1F8R) promastigotes were routinely grown in medium 199 supplemented with 10% heat-inactivated fetal bovine serum, 2 mM L-glutamine, 20 mM HEPES, 100 U/mL penicillin, and 100 μg/mL streptomycin at 25°C. L. donovani amastigote forms were grown and maintained as described previously. Axenic amastigote forms were derived from promastigote forms by culturing them in MMA/20 (medium for axenic amastigote) at pH 5.5 [22]. Axenically grown amastigotes were maintained by sub-culture of 10^5 parasites/ml repeated every fifth day under experimental conditions of 37°C temperature and 5% CO2 environment.
(§2) The antileishmanial activity of the drug specimens (BPQ+NP, BPQ, SSG, AmB, PMM, and MF) against the axenic amastigotes were evaluated based on the IC50 value, which is the concentration of the specimen required to kill 50% of the parasites. The parasites were first seeded into 96-well plates at a density of 1x10^5 amastigotes/well in 200 μL medium. Then, 10 μL of the drug candidates at various concentrations were added and the final volume was adjusted to […] medium. The number of amastigotes in the wells treated with each specimen were compared to those in the untreated control wells.
(§3) Microscopic examinations were performed in duplicates with various concentrations of pure drugs or buparvaquone-loaded nanoparticles and also for control wells. The amastigotes cells were counted for all cases using a hemocytometer. The mean of the control wells was considered as 100% survival. The counts in the treated wells at various concentrations were converted into percentages. Giemsa-stained slides of the macrophages infected with amastigotes were observed under a light microscope. Then the numbers of amastigotes and infected macrophages per 100 cells were counted for each slide. The percentage (%) of inhibition was calculated by using the equation %ofinhibition=C−T/C×100, (2) where C is the number of amastigotes/infected macrophages per 100 cells in the control well and T is the number of amastigotes/infected macrophages per 100 cells in the drug-treated well.
(§4) Origin version 6.1 software was used to calculate IC50 and CC50 values by plotting a graph of the percentage of inhibition at various concentrations of all the observations.

For data set [2], the system named is intracellular L.donovani amastigotes, wild-type AG83, in macrophages. In words: Antileishmanial activity against intracellular amastigotes, wild-type AG83. The format is cell-based. As to the method: (§5) The intracellular antileishmanial activity was evaluated based on the reduction in the amastigote numbers in the infected macrophages after the treatment. The method was adapted from our previous work. Briefly, 4x10^6 amastigotes in 500 μL of RPMI-1640 suspension were added to each well containing macrophages with the macrophage: parasite ratio of 1:10. The plates were incubated for 4 h at 37°C in 5% CO2. After the parasite internalization period, cells were washed at least twice with fresh media to remove non-phagocytosed parasites. Then, the drug specimen suspended in 1 mL RPMI-1640 was added, and the samples were incubated for 72 h at 37°C in 5% CO2. The medium was aspirated, the coverslips were removed, and then fixed with methanol and air-dried. After staining with Giemsa, 100 cells on the glass discs were counted. Three independent experiments in quadruplicate for each concentration were performed.
as §3, §4

Data set [3] deals with wild-type AG83 promastigotes. In words: IC50 against wild-type AG83 promastigotes (used for generation of resistant strains). The format is cell-based, L. donovani. The note with it: Leishmania donovani, medium 199, read-out: IC50 against the parasite. Here is the method: (§6) SSG and PMM resistant L. donovani amastigotes were generated by using the methods described previously. […] The cultures were stabilized for three subcultures. Then, the drug concentration was increased until the cell population decreased approximately to 20% for each batch. Finally, when 90% cell population of the initial count was reduced, the phenotype generated was plated on medium 199 agar plates containing the same drug concentration, and a single colony was picked for culture in medium 199 liquid media at the same drug concentration. The cultured promastigotes are converted into amastigotes as described above. Drug pressure was withdrawn, and stability was checked at one, two, and four months. SSG and PMM resistant phenotype clones were labeled as AG83-R,SSG and AG83-R, PMM, respectively.

Data set [4] is described as follows: Cytotoxicity studies (CC50) on peritoneal macrophages. The format is cell-based, BALB/c mice. The settings on record: BALB/c, mouse, resident peritoneal macrophages, 48 h exposure, mean ± σ, n = 3. As to the method: Resident peritoneal macrophages were isolated from BALB/c mice. For the isolation, 1.5 mL of sterile thioglycolate medium was injected into the peritoneal cavity to induce non-infectious inflammation. Animals were sacrificed after 5 days, and peritoneal exudates were harvested by intraperitoneal lavage. Cold RPMI (6 mL) was injected into the peritoneal cavity. After 10 min, the injected fluid was withdrawn by the same syringe. From each animal, approximately 3-4 mL of medium was recovered. After centrifugation at 200 g for 15 min, macrophages were collected. […] The cytotoxicity of the drug specimen was evaluated by the CC50 value, which is the concentration required to kill 50% of the host cell population. Macrophages were first isolated from peritoneal lavage as described above. The cells were seeded into 96-well plates at 1x10^6 cells/mL in 200 μL of RPMI-1640 supplemented with 10% FCS, 20 mM L-glutamine, 16 mM NaHCO3, penicillin (50 U/mL) and streptomycin (50 μg/ mL) at 37°C in 5% CO2 for 4 h for adherence. To remove the non-adherent cells, each plate was washed two times with phosphate buffer saline (pH 7.2). […] Microscopic examinations were performed in duplicates with various concentrations of pure drugs or buparvaquone-loaded nanoparticles and also for control wells. The amastigotes cells were counted for all cases using a hemocytometer. The mean of the control wells was considered as 100% survival. The counts in the treated wells at various concentrations were converted into percentages. Giemsa-stained slides of the macrophages infected with amastigotes were observed under a light microscope. Then the numbers of amastigotes and infected macrophages per 100 cells were counted for each slide. The percentage (%) of inhibition was calculated by using the equation %[…]×100, (2) where C is the number of amastigotes/infected macrophages per 100 cells in the control well and T is the number of amastigotes/infected macrophages per 100 cells in the drug-treated well.

The test system of data set [5] is axenic L.donovani amastigotes, AG83-R, SSG (SSG resistant strain generated from AG83). In words: microbe, parasite or virus in culture. The format is cell-based. As to the method: as §1, §6, §2, §3, §4
The subject of data set [6] is axenic L.donovani amastigotes, AG83-R, PMM (PMM resistant strain generated from AG83). In words: microbe, parasite or virus in culture. The format is cell-based. As to the method: as §1, §6, §2, §3, §4
Data set [7] deals with intracellular L.donovani amastigotes, AG83-R, SSG, in macrophages. In words: microbe, parasite or virus in culture. The format is cell-based. As to the method:
as §6, §5, §3, §4

Data set [8] relates to intracellular L.donovani amastigotes, AG83-R, PMM, in macrophages. In words: microbe, parasite or virus in culture. The format is cell-based. Here is the method:
as §6, §5, §3, §4

The subject of data set [9] is axenic L.donovani amastigotes, wild-type AG83. In words: Antileishmanial activity against axenic amastigotes, wild-type AG83. The format is cell-based. The settings on record: Leishmania donovani; axenic amastigotes; mean ± σ, n = 4. Here is the method:
as §1, §2, §3, §4

Data set [10] deals with intracellular L.donovani amastigotes, GE1, in macrophages. In words: Antileishmanial activity against intracellular amastigotes, GE1. The format is cell-based. Here is the method:
as §5, §3, §4

[11] abbreviates: IC50 against drug resistant strain / IC50 against wild-type strain (AG83), axenic.

Here are results for three compounds from publication PMC8274846, “Biogenic nanoporous silicon carrier improves the efficacy of buparvaquone against resistant visceral leishmaniasis” (PLoS Neglected Tropical Diseases, 2021).

For `C[C@@H]1CC[C@H]2[C@@H](C)C(=O)O[C@@H]3O[C@@]4(C)CC[C@@H]1[C@]32OO4` [artemisinin], the “Reduction of parasite burdens (liver and spleen)” value with L.donovani is given as ~ 50%.

For the compound `CC(C)(C)C1CCC(CC2=C(OP(=O)(O)O)C(=O)c3ccccc3C2=O)CC1` (stereo not shown) [buparvaquone-3-phosphate], the “Reduction in the liver parasite burden” value with liver parasite burden is 34%.

As to `NC[C@@H]1O[C@H](O[C@H]2[C@@H](O)[C@H](O[C@@H]3[C@@H](O)[C@H](N)C[C@H](N)[C@H]3O[C@H]3O[C@H](CO)[C@@H](O)[C@H](O)[C@H]3N)O[C@@H]2CO)[C@H](N)[C@@H](O)[C@@H]1O` [PMM, paromomycin], the “Resistance index (RI), GE1” value in data set [1] (setting [11]) worked out at 2.1 ± 0.3. In addition, the IC50 in [1] (Leishmania donovani, axenic amastigotes, mean ± σ, n = 4) came out at 25 ± 2 µM; in [2] (Leishmania donovani, Macrophage, intracellular amastigotes, 72 h, mean ± σ, n = 4, read-out: Cellular IC50, Wild-type AG83), 9 ± 2 µM; in data set [3] it was 10 µM; in data set [5] (Leishmania donovani, read-out: Axenic IC50, AG83-R, SSG) it was 384 ± 23 µM; in data set [6] (Leishmania donovani, read-out: Axenic IC50, AG83-R, PMM), 327 ± 12 µM; in data set [7] (Leishmania donovani, Macrophage, 72 h, read-out: Cellular IC50, AG83-R, SSG) it was 140 ± 10 µM. In addition, the half-maximal inhibitory concentration (IC50) in data set [8] (Leishmania donovani, Macrophage, 72 h, read-out: Cellular IC50, AG83-R, PMM) stood at 120 ± 10 µM; in [9], 12 ± 1 µM; in [10] (Leishmania donovani, Macrophage, intracellular amastigotes, 72 h, mean ± σ, n = 4, read-out: Cellular IC50, GE1), 20 ± 3 µM. Besides, the “Selectivity index (SI), AG83” value in [2] (CC50/IC50, intracellular) came to 30 ± 5. The CC50 at 48 h in data set [4] was found to be 260 ± 20 µM. Further, the “Resistance index (RI), AG83-R, SSG” value in [5] (setting [11]) stood at 32 ± 3. The “Resistance index (RI), AG83-R, PMM” value in data set [6] (setting [11]) was found to be 27 ± 2. Besides, in [7] (CC50/IC50, intracellular), the “Selectivity index (SI), AG83-R, SSG” value is listed as 2 ± 1. Further, the “Selectivity index (SI), AG83-R, PMM” value in [8] (CC50/IC50, intracellular) turned out to be 2 ± 1. The “Selectivity index (SI), GE1” value in data set [10] (CC50/IC50, intracellular) was found to be 13 ± 2.

For orientation: IC50 means the midpoint of a concentration-inhibition curve. As usually defined, the CC50 is the concentration at which the toxic effect on the cells reaches its halfway point. Read a high CC50 as better tolerance by the cells.
